Our source for the IC50 values is patent publication US20070207952A1, “Long Acting Biologically Active Conjugates” (priority 2003, published 2007).

One may read the IC50 as the concentration that inhibits the measured activity by half.

Where a SMILES comes first, the peptide text is derived from it. [ ]: non-standard residue; d: D form. Nle = CCCC[C@H](N)C(=O)O

The first assay deals with HIV-1 IIIB. The assay can be described thus: Antiviral cytotoxicity (MTT) assay with MT4 cells, HIV-1 IIIB. The format is cell-based. Particulars: MT-4 cells, 5 days, average of 2 or 3 experiments.
On to `CCCC[C@H](NC(=O)[C@H](Cc1c[nH]c2ccccc12)NC(C)=O)C(=O)N[C@@H](CCC(=O)O)C(=O)N[C@@H](Cc1c[nH]c2ccccc12)C(=O)N[C@@H](CC(=O)O)C(=O)N[C@@H](CCCNC(=N)N)C(=O)N[C@@H](CCCCN)C(=O)N[C@H](C(=O)N[C@@H](CCC(=O)O)C(=O)N[C@@H](CCC(=O)O)C(=O)N[C@@H](Cc1ccc(O)cc1)C(=O)N[C@H](C(=O)N[C@@H](CCCCN)C(=O)N[C@@H](CCCCN)C(=O)N[C@H](C(=O)N[C@@H](CCC(=O)O)C(=O)N[C@@H](CCC(=O)O)C(=O)N[C@@H](CC(C)C)C(=O)N[C@H](C(=O)N[C@@H](CCCCN)C(=O)N[C@@H](CCCCN)C(=O)N[C@@H](CO)C(=O)N[C@@H](CCC(N)=O)C(=O)N[C@@H](CCC(=O)O)C(=O)N[C@@H](CCC(N)=O)C(=O)N[C@@H](CCC(N)=O)C(=O)N[C@@H](CCC(=O)O)C(=O)N[C@@H](CCCCN)C(=O)N[C@@H](CC(N)=O)C(=O)N[C@@H](CCC(=O)O)C(=O)N[C@@H](CCCCN)C(=O)N[C@@H](CCC(=O)O)C(=O)N[C@@H](CC(C)C)C(=O)N[C@@H](CCCCN)C(N)=O)[C@@H](C)CC)[C@@H](C)CC)[C@@H](C)O)[C@@H](C)CC` [peptide 9, Ac-WXEWDRKIEEYTKKIEELIKKSQEQQEKNEKELK-NH2] (Ac-W[Nle]EWDRKIEEYTKKIEELIKKSQEQQEKNEKELK-NH2), for which the IC50 stood at 1.7 nM.
`CCCC[C@H](NC(=O)[C@H](Cc1c[nH]c2ccccc12)NC(C)=O)C(=O)N[C@@H](CCC(=O)O)C(=O)N[C@@H](Cc1c[nH]c2ccccc12)C(=O)N[C@@H](CC(=O)O)C(=O)N[C@@H](CCCNC(=N)N)C(=O)N[C@@H](CCCCN)C(=O)N[C@H](C(=O)N[C@@H](CCC(=O)O)C(=O)N[C@@H](CCC(=O)O)C(=O)N[C@@H](Cc1ccc(O)cc1)C(=O)N[C@H](C(=O)N[C@@H](CCCCN)C(=O)N[C@@H](CCCCN)C(=O)N[C@H](C(=O)N[C@@H](CCCCN)C(=O)N[C@@H](CCCCN)C(=O)N[C@@H](CC(C)C)C(=O)N[C@H](C(=O)N[C@@H](CCC(=O)O)C(=O)N[C@@H](CCC(=O)O)C(=O)N[C@@H](CO)C(=O)N[C@@H](CCC(N)=O)C(=O)N[C@@H](CCC(=O)O)C(=O)N[C@@H](CCC(N)=O)C(=O)N[C@@H](CCC(N)=O)C(=O)N[C@@H](CCC(=O)O)C(=O)N[C@@H](CCCCN)C(=O)N[C@@H](CC(N)=O)C(=O)N[C@@H](CCC(=O)O)C(=O)N[C@@H](CCCCN)C(=O)N[C@@H](CCC(=O)O)C(=O)N[C@@H](CC(C)C)C(=O)N[C@@H](CCCCN)C(N)=O)[C@@H](C)CC)[C@@H](C)CC)[C@@H](C)O)[C@@H](C)CC` [peptide 6, Ac-WXEWDRKIEEYTKKIKKLIEESQEQQEKNEKELK-NH2] (Ac-W[Nle]EWDRKIEEYTKKIKKLIEESQEQQEKNEKELK-NH2) displayed an IC50 of 2.4 nM.

A further assay has as its system HIV NL4-3. Description: Antiviral cytotoxicity (MTT) assay with MT4 cells, HIV NL4-3. The format is cell-based, HIV-1. The settings on record: MT-4 cells, 5 days, average of 2 or 3 experiments. As for the experimental part: Antiviral potency of the peptides was analyzed against HIV-1 HXB2 or NLA-3 strains using a cytotoxicity assay with MT4 cells as previously described (ref 1-3) with minor modifications. MT-4 cells (1.5×10^4/ml) were exposed to 200 50% tissue culture infective doses (TCID50) of viruses in the presence of various concentrations of test compound in 96 well microtiter plates and incubated at 37° C. for 5 days. Cytotoxicity of HIV was measured by the addition of 3-(4,5-dimethylthiazol-2-yl)-2,5-diphenytetrazolium bromide (MMI) solution to each well to a final concentration of 0.75 mg/ml, and incubation for 1 hour a 37° C. After incubation, cells were dissolved in isopropanoyrriton-X 100/HCl (1000:50:25) solution. Absorbance was monitored in a microplate reader (Spectramax, Molecular Devices) at 540 rm and 690 nm. MT-4 cells were obtained from the AIDS Research and Reference Reagent Program (ARRRP, Division of AIDS, NIAID, NIH: MT-4 from Dr. D. Richman). Cells were propagated in RPMI 1640 growth medium supplemented with 10% fetal bovine serum, 50U of penicillin and 50 μg of streptomycin per ml ([Ivitrogen, Carlsbad Calif.).
As for `CCCC[C@H](NC(=O)[C@H](Cc1c[nH]c2ccccc12)NC(C)=O)C(=O)N[C@@H](CCC(=O)O)C(=O)N[C@@H](Cc1c[nH]c2ccccc12)C(=O)N[C@@H](CC(=O)O)C(=O)N[C@@H](CCCNC(=N)N)C(=O)N[C@@H](CCCCN)C(=O)N[C@H](C(=O)N[C@@H](CCC(=O)O)C(=O)N[C@@H](CCC(=O)O)C(=O)N[C@@H](Cc1ccc(O)cc1)C(=O)N[C@H](C(=O)N[C@@H](CCCCN)C(=O)N[C@@H](CCCCN)C(=O)N[C@H](C(=O)N[C@@H](CCC(=O)O)C(=O)N[C@@H](CCC(=O)O)C(=O)N[C@@H](CC(C)C)C(=O)N[C@H](C(=O)N[C@@H](CCCCN)C(=O)N[C@@H](CCCCN)C(=O)N[C@@H](CO)C(=O)N[C@@H](CCC(N)=O)C(=O)N[C@@H](CCC(=O)O)C(=O)N[C@@H](CCC(N)=O)C(=O)N[C@@H](CCC(N)=O)C(=O)N[C@@H](CCC(=O)O)C(=O)N[C@@H](CCCCN)C(=O)N[C@@H](CC(N)=O)C(=O)N[C@@H](CCC(=O)O)C(=O)N[C@@H](CCCCN)C(=O)N[C@@H](CCC(=O)O)C(=O)N[C@@H](CC(C)C)C(=O)N[C@@H](CCCCN)C(N)=O)[C@@H](C)CC)[C@@H](C)CC)[C@@H](C)O)[C@@H](C)CC` [peptide 9, Ac-WXEWDRKIEEYTKKIEELIKKSQEQQEKNEKELK-NH2] (Ac-W[Nle]EWDRKIEEYTKKIEELIKKSQEQQEKNEKELK-NH2), the IC50 came to 0.9 nM.
For `CCCC[C@H](NC(=O)[C@H](Cc1c[nH]c2ccccc12)NC(C)=O)C(=O)N[C@@H](CCC(=O)O)C(=O)N[C@@H](Cc1c[nH]c2ccccc12)C(=O)N[C@@H](CC(=O)O)C(=O)N[C@@H](CCCNC(=N)N)C(=O)N[C@@H](CCCCN)C(=O)N[C@H](C(=O)N[C@@H](CCC(=O)O)C(=O)N[C@@H](CCC(=O)O)C(=O)N[C@@H](Cc1ccc(O)cc1)C(=O)N[C@H](C(=O)N[C@@H](CCCCN)C(=O)N[C@@H](CCCCN)C(=O)N[C@H](C(=O)N[C@@H](CCCCN)C(=O)N[C@@H](CCCCN)C(=O)N[C@@H](CC(C)C)C(=O)N[C@H](C(=O)N[C@@H](CCC(=O)O)C(=O)N[C@@H](CCC(=O)O)C(=O)N[C@@H](CO)C(=O)N[C@@H](CCC(N)=O)C(=O)N[C@@H](CCC(=O)O)C(=O)N[C@@H](CCC(N)=O)C(=O)N[C@@H](CCC(N)=O)C(=O)N[C@@H](CCC(=O)O)C(=O)N[C@@H](CCCCN)C(=O)N[C@@H](CC(N)=O)C(=O)N[C@@H](CCC(=O)O)C(=O)N[C@@H](CCCCN)C(=O)N[C@@H](CCC(=O)O)C(=O)N[C@@H](CC(C)C)C(=O)N[C@@H](CCCCN)C(N)=O)[C@@H](C)CC)[C@@H](C)CC)[C@@H](C)O)[C@@H](C)CC` [peptide 6, Ac-WXEWDRKIEEYTKKIKKLIEESQEQQEKNEKELK-NH2] (Ac-W[Nle]EWDRKIEEYTKKIKKLIEESQEQQEKNEKELK-NH2), the IC50 came out at 1.2 nM.
